Data as given in PMC12888861, “Antibacterial activity of enmetazobactam against Acinetobacter spp.: a molecular dissection of mechanism of action and resistance determinants” (Antimicrobial Agents and Chemotherapy, 2025).
Like-named read-outs stand apart in the source and are kept apart here.

Tested on: A. non-baumannii isolates (n = 87)
Experiment: MIC, broth microdilution (EUCAST), A. non-baumannii isolates
Format: cell-based, Acinetobacter spp. (non-baumannii)
How it was run: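 Clinical isolates from the Spanish National Acinetobacter spp. 2020 collection were tested by EUCAST v.15 broth microdilution, including enmetazobactam on its own. Duplicate runs used A. baumannii ATCC 19606 as reference.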

[1] = Acinetobacter, A. non-baumannii isolates (n=87), ETZ fixed 8 mg/L in combinations

CC1(C)[C@H](C(=O)O)N2C(=O)C[C@H]2S1(=O)=O [sulbactam]
97.7: MIC distribution 2
4 µg/mL: MIC (Acinetobacter calcoaceticus, isolate NO-Ab108, Acinetobacter calcoaceticus, in combinations ETZ fixed at 8 mg/L, read-out: MIC) | MIC (Acinetobacter calcoaceticus, isolate NO-Ab161, Acinetobacter calcoaceticus, in combinations ETZ fixed at 8 mg/L, read-out: MIC)
82.8: MIC distribution 1
2.3: MIC distribution 0.12
0.5 µg/mL: MIC (Acinetobacter bereziniae, isolate NO-Ab70, Acinetobacter bereziniae, in combinations ETZ fixed at 8 mg/L, read-out: MIC) | MIC (Acinetobacter bereziniae, isolate NO-Ab104, Acinetobacter bereziniae, in combinations ETZ fixed at 8 mg/L, read-out: MIC) | MIC (Acinetobacter bereziniae, isolate NO-Ab116, Acinetobacter bereziniae, in combinations ETZ fixed at 8 mg/L, read-out: MIC) | MIC (Acinetobacter courvalinii, isolate NO-Ab216, Acinetobacter courvalinii, in combinations ETZ fixed at 8 mg/L, read-out: MIC) | MIC (Acinetobacter dispersus, isolate NO-Ab2, Acinetobacter dispersus, in combinations ETZ fixed at 8 mg/L, read-out: MIC) | MIC (Acinetobacter guillouiae, isolate NO-Ab74, Acinetobacter guillouiae, in combinations ETZ fixed at 8 mg/L, read-out: MIC) | MIC (Acinetobacter haemolyticus, isolate NO-Ab92, Acinetobacter haemolyticus, in combinations ETZ fixed at 8 mg/L) | MIC (Acinetobacter haemolyticus, isolate NO-Ab177, Acinetobacter haemolyticus, in combinations ETZ fixed at 8 mg/L) | MIC (Acinetobacter junii, isolate NO-Ab76, Acinetobacter junii, in combinations ETZ fixed at 8 mg/L, read-out: MIC) | MIC (Acinetobacter junii, isolate NO-Ab77, Acinetobacter junii, OXA-24/40, in combinations ETZ fixed at 8 mg/L, read-out: MIC) | MIC (Acinetobacter lactucae, isolate NO-Ab88, Acinetobacter dijkshoorniae, in combinations ETZ fixed at 8 mg/L, read-out: MIC) | MIC (Acinetobacter lactucae, isolate NO-Ab160, Acinetobacter dijkshoorniae, in combinations ETZ fixed at 8 mg/L, read-out: MIC) | MIC (Acinetobacter nosocomialis, isolate NO-Ab208, Acinetobacter nosocomialis, in combinations ETZ fixed at 8 mg/L, read-out: MIC) | MIC (Acinetobacter pittii, MBC set, isolate NO-Ab89, A. pittii, read-out: MIC) | MIC (Acinetobacter pittii, isolate NO-Ab73, Acinetobacter pittii, in combinations ETZ fixed at 8 mg/L, read-out: MIC) | MIC (Acinetobacter pittii, isolate NO-Ab78, Acinetobacter pittii, in combinations ETZ fixed at 8 mg/L, read-out: MIC) | MIC (Acinetobacter pittii, isolate NO-Ab82, Acinetobacter pittii, in combinations ETZ fixed at 8 mg/L, read-out: MIC) | MIC (Acinetobacter pittii, isolate NO-Ab89, Acinetobacter pittii, in combinations ETZ fixed at 8 mg/L, read-out: MIC) | MIC (Acinetobacter pittii, isolate NO-Ab90, Acinetobacter pittii, in combinations ETZ fixed at 8 mg/L, read-out: MIC) | MIC (Acinetobacter pittii, isolate NO-Ab106, Acinetobacter pittii, in combinations ETZ fixed at 8 mg/L, read-out: MIC) | MIC (Acinetobacter pittii, isolate NO-Ab107, Acinetobacter pittii, in combinations ETZ fixed at 8 mg/L, read-out: MIC) | MIC (Acinetobacter pittii, isolate NO-Ab135, Acinetobacter pittii, in combinations ETZ fixed at 8 mg/L, read-out: MIC) | MIC (Acinetobacter pittii, isolate NO-Ab154, Acinetobacter pittii, in combinations ETZ fixed at 8 mg/L, read-out: MIC) | MIC (Acinetobacter pittii, isolate NO-Ab162, Acinetobacter pittii, in combinations ETZ fixed at 8 mg/L, read-out: MIC) | MIC (Acinetobacter pittii, isolate NO-Ab164, Acinetobacter pittii, in combinations ETZ fixed at 8 mg/L, read-out: MIC) | MIC (Acinetobacter pittii, isolate NO-Ab178, Acinetobacter pittii, in combinations ETZ fixed at 8 mg/L, read-out: MIC) | MIC (Acinetobacter pittii, isolate NO-Ab197, Acinetobacter pittii, in combinations ETZ fixed at 8 mg/L, read-out: MIC) | MIC (Acinetobacter ursingii, isolate NO-Ab103, Acinetobacter ursingii, in combinations ETZ fixed at 8 mg/L, read-out: MIC) | MIC (Acinetobacter ursingii, isolate NO-Ab119, Acinetobacter ursingii, in combinations ETZ fixed at 8 mg/L, read-out: MIC) | MIC (Acinetobacter ursingii, isolate NO-Ab120, Acinetobacter ursingii, in combinations ETZ fixed at 8 mg/L, read-out: MIC) | MIC (Acinetobacter ursingii, isolate NO-Ab221, Acinetobacter ursingii, in combinations ETZ fixed at 8 mg/L, read-out: MIC) | MIC (Acinetobacter ursingii, isolate NO-Ab222, Acinetobacter ursingii, in combinations ETZ fixed at 8 mg/L, read-out: MIC) | MIC (Acinetobacter, MBC set, isolate NO-Ab88, A. dijkshoorniae, read-out: MIC) | MIC (Acinetobacter, isolate NO-Ab159, Acinetobacter iwoffii, in combinations ETZ fixed at 8 mg/L, read-out: MIC)
0.12 µg/mL: MIC (Acinetobacter ursingii, isolate NO-Ab87, Acinetobacter ursingii, in combinations ETZ fixed at 8 mg/L, read-out: MIC)
44.8: MIC distribution 0.5
100: MIC distribution 4 | MIC distribution 8 | MIC distribution 16 | MIC distribution 32
8.0: MIC distribution 0.25
1 µg/mL: MIC (Acinetobacter baylyi, isolate NO-Ab27, Acinetobacter baylyi, in combinations ETZ fixed at 8 mg/L, read-out: MIC) | MIC (Acinetobacter bereziniae, isolate NO-Ab84, Acinetobacter bereziniae, in combinations ETZ fixed at 8 mg/L, read-out: MIC) | MIC (Acinetobacter bereziniae, isolate NO-Ab114, Acinetobacter bereziniae, in combinations ETZ fixed at 8 mg/L, read-out: MIC) | MIC (Acinetobacter bereziniae, isolate NO-Ab115, Acinetobacter bereziniae, in combinations ETZ fixed at 8 mg/L, read-out: MIC) | MIC (Acinetobacter bereziniae, isolate NO-Ab117, Acinetobacter bereziniae, in combinations ETZ fixed at 8 mg/L, read-out: MIC) | MIC (Acinetobacter bereziniae, isolate NO-Ab129, Acinetobacter bereziniae, in combinations ETZ fixed at 8 mg/L, read-out: MIC) | MIC (Acinetobacter bereziniae, isolate NO-Ab156, Acinetobacter bereziniae, in combinations ETZ fixed at 8 mg/L, read-out: MIC) | MIC (Acinetobacter calcoaceticus, isolate NO-Ab211, Acinetobacter calcoaceticus, in combinations ETZ fixed at 8 mg/L, read-out: MIC) | MIC (Acinetobacter guillouiae, isolate NO-Ab69, Acinetobacter guillouiae, in combinations ETZ fixed at 8 mg/L, read-out: MIC) | MIC (Acinetobacter johnsonii, isolate NO-Ab101, Acinetobacter johnsonii, in combinations ETZ fixed at 8 mg/L, read-out: MIC) | MIC (Acinetobacter lactucae, isolate NO-Ab60, Acinetobacter dijkshoorniae, in combinations ETZ fixed at 8 mg/L, read-out: MIC) | MIC (Acinetobacter lactucae, isolate NO-Ab63, Acinetobacter dijkshoorniae, in combinations ETZ fixed at 8 mg/L, read-out: MIC) | MIC (Acinetobacter lactucae, isolate NO-Ab65, Acinetobacter dijkshoorniae, in combinations ETZ fixed at 8 mg/L, read-out: MIC) | MIC (Acinetobacter lactucae, isolate NO-Ab86, Acinetobacter dijkshoorniae, in combinations ETZ fixed at 8 mg/L, read-out: MIC) | MIC (Acinetobacter lactucae, isolate NO-Ab91, Acinetobacter dijkshoorniae, in combinations ETZ fixed at 8 mg/L, read-out: MIC) | MIC (Acinetobacter lactucae, isolate NO-Ab125, Acinetobacter dijkshoorniae, in combinations ETZ fixed at 8 mg/L, read-out: MIC) | MIC (Acinetobacter nosocomialis, isolate NO-Ab68, Acinetobacter nosocomialis, OXA-24/40, in combinations ETZ fixed at 8 mg/L, read-out: MIC) | MIC (Acinetobacter pittii, isolate NO-Ab59, Acinetobacter pittii, in combinations ETZ fixed at 8 mg/L, read-out: MIC) | MIC (Acinetobacter pittii, isolate NO-Ab66, Acinetobacter pittii, in combinations ETZ fixed at 8 mg/L, read-out: MIC) | MIC (Acinetobacter pittii, isolate NO-Ab75, Acinetobacter pittii, in combinations ETZ fixed at 8 mg/L, read-out: MIC) | MIC (Acinetobacter pittii, isolate NO-Ab97, Acinetobacter pittii, in combinations ETZ fixed at 8 mg/L, read-out: MIC) | MIC (Acinetobacter pittii, isolate NO-Ab105, Acinetobacter pittii, in combinations ETZ fixed at 8 mg/L, read-out: MIC) | MIC (Acinetobacter pittii, isolate NO-Ab111, Acinetobacter pittii, in combinations ETZ fixed at 8 mg/L, read-out: MIC) | MIC (Acinetobacter pittii, isolate NO-Ab113, Acinetobacter pittii, in combinations ETZ fixed at 8 mg/L, read-out: MIC) | MIC (Acinetobacter pittii, isolate NO-Ab145, Acinetobacter pittii, in combinations ETZ fixed at 8 mg/L, read-out: MIC) | MIC (Acinetobacter pittii, isolate NO-Ab157, Acinetobacter pittii, in combinations ETZ fixed at 8 mg/L, read-out: MIC) | MIC (Acinetobacter proteolyticus, isolate NO-Ab99, Acinetobacter proteolyticus, in combinations ETZ fixed at 8 mg/L, read-out: MIC) | MIC (Acinetobacter proteolyticus, isolate NO-Ab102, Acinetobacter proteolyticus, in combinations ETZ fixed at 8 mg/L, read-out: MIC) | MIC (Acinetobacter radioresistens, isolate NO-Ab175, Acinetobacter radioresistens, in combinations ETZ fixed at 8 mg/L, read-out: MIC) | MIC (Acinetobacter ursingii, isolate NO-Ab64, Acinetobacter ursingii, in combinations ETZ fixed at 8 mg/L, read-out: MIC) | MIC (Acinetobacter ursingii, isolate NO-Ab126, Acinetobacter ursingii, in combinations ETZ fixed at 8 mg/L, read-out: MIC) | MIC (Acinetobacter ursingii, isolate NO-Ab155, Acinetobacter ursingii, in combinations ETZ fixed at 8 mg/L, read-out: MIC) | MIC (Acinetobacter ursingii, isolate NO-Ab165, Acinetobacter ursingii, in combinations ETZ fixed at 8 mg/L, read-out: MIC) | MIC (Acinetobacter, MBC set, isolate NO-Ab84, A. bereziniae, read-out: MIC) | MIC50 [1]
1.1: MIC distribution ≤0.06
2 µg/mL: MIC (Acinetobacter beijerinckii, isolate NO-Ab122, Acinetobacter beijerinckii, in combinations ETZ fixed at 8 mg/L, read-out: MIC) | MIC (Acinetobacter calcoaceticus, isolate NO-Ab85, Acinetobacter calcoaceticus, in combinations ETZ fixed at 8 mg/L, read-out: MIC) | MIC (Acinetobacter calcoaceticus, isolate NO-Ab94, Acinetobacter calcoaceticus, in combinations ETZ fixed at 8 mg/L, read-out: MIC) | MIC (Acinetobacter calcoaceticus, isolate NO-Ab198, Acinetobacter calcoaceticus, in combinations ETZ fixed at 8 mg/L, read-out: MIC) | MIC (Acinetobacter calcoaceticus, isolate NO-Ab205, Acinetobacter calcoaceticus, in combinations ETZ fixed at 8 mg/L, read-out: MIC) | MIC (Acinetobacter lactucae, isolate NO-Ab121, Acinetobacter dijkshoorniae, in combinations ETZ fixed at 8 mg/L, read-out: MIC) | MIC (Acinetobacter nosocomialis, isolate NO-Ab43, Acinetobacter nosocomialis, in combinations ETZ fixed at 8 mg/L, read-out: MIC) | MIC (Acinetobacter nosocomialis, isolate NO-Ab98, Acinetobacter nosocomialis, in combinations ETZ fixed at 8 mg/L, read-out: MIC) | MIC (Acinetobacter pittii, isolate NO-Ab118, Acinetobacter pittii, in combinations ETZ fixed at 8 mg/L, read-out: MIC) | MIC (Acinetobacter pittii, isolate NO-Ab151, Acinetobacter pittii, in combinations ETZ fixed at 8 mg/L, read-out: MIC) | MIC (Acinetobacter ursingii, isolate NO-Ab123, Acinetobacter ursingii, in combinations ETZ fixed at 8 mg/L, read-out: MIC) | MIC (Acinetobacter ursingii, isolate NO-Ab147, Acinetobacter ursingii, in combinations ETZ fixed at 8 mg/L, read-out: MIC) | MIC (Acinetobacter, isolate NO-Ab146, Acinetobacter iwoffii, in combinations ETZ fixed at 8 mg/L, read-out: MIC) | MIC90 [1]
0.25 µg/mL: MIC (Acinetobacter haemolyticus, isolate NO-Ab217, Acinetobacter haemolyticus, in combinations ETZ fixed at 8 mg/L) | MIC (Acinetobacter proteolyticus, isolate NO-Ab210, Acinetobacter proteolyticus, in combinations ETZ fixed at 8 mg/L, read-out: MIC) | MIC (Acinetobacter radioresistens, isolate NO-Ab215, Acinetobacter radioresistens, in combinations ETZ fixed at 8 mg/L, read-out: MIC) | MIC (Acinetobacter ursingii, isolate NO-Ab3, Acinetobacter ursingii, in combinations ETZ fixed at 8 mg/L, read-out: MIC) | MIC (Acinetobacter ursingii, isolate NO-Ab166, Acinetobacter ursingii, in combinations ETZ fixed at 8 mg/L, read-out: MIC)
≤ 0.06 µg/mL: MIC (Acinetobacter ursingii, isolate NO-Ab214, Acinetobacter ursingii, in combinations ETZ fixed at 8 mg/L, read-out: MIC)
